System: bacterial pool of E. coli, S. aureus, and P. aeruginosa
Test: Antibacterial challenge testing of foaming hand soap (Example 2A)
Assay type: cell-based
Procedure: For antibacterial challenge testing, one vial each of E. coli, S. aureus, and P. aeruginosa was rehydrated in 1 mL peptone buffer. The concentrations of the cell suspensions were determined based on the Certificates of Analysis accompanying each bacteria vial, and the suspensions were combined and diluted in BPDB to make a 3×10^8 CFU/mL bacterial pool composed of 1×10^8 CFU/mL of each of E. coli, S. aureus, and P. aeruginosa at a final volume of 1 mL. For antifungal challenge testing, one vial of C. albicans was rehydrated in 1 mL peptone buffer. The concentration of the cell suspension was determined based on the Certificate of Analysis accompanying the vial of yeast. The resuspended cells were diluted in BPDB to 3×10^7 CFU/mL at a final volume of 1 mL.
The enumeration of the microbial population in antibacterial and antifungal challenge testing was performed in the following manner. At day 0, a 3-mL sample was collected from each of the prepared formulations and inoculated with 0.03 mL of the bacterial pool to obtain a final inoculum of 3×10^6 CFU/mL. The inoculated samples were maintained under the same conditions from day 0 to day 7. At each analysis timepoint, the inoculated samples were subjected to 10-fold serial dilutions in BPDB to obtain diluted samples such that 25-250 colonies were estimated to be yielded from 0.1 mL of the diluted sample plated on a tryptic soy agar petri dish containing Polysorbate 80 and Lecithin. The petri dishes were incubated at 31.5+/−1° C. for 24 to 48 hours. The petri dishes were then removed from the incubator and the colonies were counted and multiplied by their corresponding dilution factors to determine the bacterial concentrations (in CFU/mL) of the samples. At day 2 and day 7 post-inoculation, the serial dilutions, plating, and colony counting were repeated to monitor the changes in bacterial population.

[1] = foaming hand soap pH 6.5, sodium benzoate 0.5% alone
[2] = foaming hand soap pH 6.5, sodium benzoate 0.5% alone, listed as sodium benzoate
[3] = foaming hand soap pH 7.0, sodium benzoate 1% alone
[4] = foaming hand soap pH 7.0, sodium benzoate 1% alone, listed as sodium benzoate
[5] = foaming hand soap pH 7.5, sodium benzoate 1% alone
[6] = foaming hand soap pH 8.0, sodium benzoate 1% alone

O=C([O-])c1ccccc1.[Na+] [Sodium Benzoate, Sodium benzoate]
Day 2 log reduction in CFU/mL compared to Day 0 [1]: 0.84 log CFU/mL | Day 2 log reduction in CFU/mL compared to Day 0 [2]: Modest reductions | Day 7 log reduction in CFU/mL compared to Day 0 [1]: −1.25 log CFU/mL | Day 7 log reduction in CFU/mL compared to Day 0 [2]: no reduction | Day 2 log reduction in CFU/mL compared to Day 0 [3]: 0.88 log CFU/mL | Day 2 log reduction in CFU/mL compared to Day 0 [4]: Modest reductions | Day 7 log reduction in CFU/mL compared to Day 0 [3]: −1.39 log CFU/mL | Day 7 log reduction in CFU/mL compared to Day 0 [4]: no reduction | Day 2 log reduction in CFU/mL compared to Day 0 [5]: −0.62 log CFU/mL | Day 7 log reduction in CFU/mL compared to Day 0 [5]: −1.23 log CFU/mL | Day 7 log reduction in CFU/mL compared to Day 0 (foaming hand soap pH 7.5, sodium benzoate 1% alone, listed as sodium benzoate): no reduction | Day 2 log reduction in CFU/mL compared to Day 0 [6]: −0.90 log CFU/mL | Day 7 log reduction in CFU/mL compared to Day 0 [6]: −0.91 log CFU/mL | Day 7 log reduction in CFU/mL compared to Day 0 (foaming hand soap pH 8.0, sodium benzoate 1% alone, listed as sodium benzoate): no reduction
